Experimental findings from patent publication US20190367516A1 (Bayer Pharma Aktiengesellschaft, priority 2015, published 2019) are described below.

Test [1] deals with T1, human M2 receptor (Homo sapiens, UniProt P08172).
T1 sequence (P08172 1-466): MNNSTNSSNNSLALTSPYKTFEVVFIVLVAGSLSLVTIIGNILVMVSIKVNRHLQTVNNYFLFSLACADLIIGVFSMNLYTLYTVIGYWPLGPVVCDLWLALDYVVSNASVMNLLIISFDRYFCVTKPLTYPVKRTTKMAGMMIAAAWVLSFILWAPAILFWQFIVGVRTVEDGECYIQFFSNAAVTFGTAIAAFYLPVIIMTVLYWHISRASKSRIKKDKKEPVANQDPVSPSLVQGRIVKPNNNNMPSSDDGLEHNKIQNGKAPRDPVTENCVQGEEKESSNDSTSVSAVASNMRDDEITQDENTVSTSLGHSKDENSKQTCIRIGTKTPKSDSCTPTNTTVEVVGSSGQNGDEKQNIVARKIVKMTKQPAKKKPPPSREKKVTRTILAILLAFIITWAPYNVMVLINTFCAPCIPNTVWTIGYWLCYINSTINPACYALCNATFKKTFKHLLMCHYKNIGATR
It is filed as cell-based. Particulars: shift in the acetylcholine dose-response curve (Allosteric EC50 shift, GraphPad PRISM); α >1 = positive cooperativity. The procedure:
B-1.2. Determination of Positive Cooperativity (α Factor)
In contrast to the EC50 determination of the test substances (see B-1.1), however, this is not done using one acetylcholine concentration; instead, every concentration of the test substance is combined with an acetylcholine 8-point dose-response curve. […] The shift in the acetylcholine dose-response curve in the presence of increasing concentrations of the test substance is analysed and quantified by means of GraphPad PRISM (Allosteric EC50 shift). […] Positive cooperativity is the hallmark of a positive allosteric modulator. […] The greater the magnitude of the α value, the greater the extent of cooperativity between orthosteric and allosteric.

The target in test [2] is T1, human M2 receptor. Particulars: Receptor activity EC50, M2-GIRK1/4 activation test, acetylcholine at EC20; allosteric potency; in some cases mean values from two or more determinations.

Each structure is given as a SMILES string.

Consider `CC(NC(=O)c1cn(-c2ccc(F)cc2F)c2nc(N3C[C@@H](O)CC3=O)ccc2c1=O)c1c(F)cccc1F` (mixture of isomers) [Example 214, 1-(2,4-Difluorophenyl)-N-[1-(2,6-difluorophenyl)ethyl]-7-[(4S)-4-hydroxy-2-oxopyrrolidin-1-yl]-4-oxo-1,4-dihydro-1,8-naphthyridine-3-carboxamide], for which the “Cooperativity (alpha factor)” value at human M2 receptor [1] amounted to 43. At human M2 receptor [2], this molecule returned an EC50 of 0.107 µM.
For `CC[C@@H](NC(=O)c1cn(-c2ccc(F)cc2F)c2nc(N3CC4CNC(=O)C4C3)ccc2c1=O)C(F)(F)F` (mixture of isomers) [Example 221, 1-(2,4-Difluorophenyl)-4-oxo-7-[4-oxohexahydrpyrrolo[3,4-c]pyrrol-2(1H)-yl]-N-[(2R)-1,1,1-trifluorobutan-2-yl]-1,4-dihydro-1,8-naphthyridine-3-carboxamide], the “Cooperativity (alpha factor)” value at human M2 receptor [1] is on record as 24. On human M2 receptor [2], this molecule registered an EC50 of 0.106 µM.
For `CC[C@@H](NC(=O)c1cn(-c2ccc(F)cc2F)c2nc(N3CCC(O)C3=O)ccc2c1=O)C(F)(F)F` (mixture of isomers) [Example 224, 1-(2,4-Difluorophenyl)-7-[3-hydroxy-2-oxopyrrolidin-1-yl]-4-oxo-N-[(2R)-1,1,1-trifluorobutan-2-yl]-1,4-dihydro-1,8-naphthyridine-3-carboxamide] the same measures were 31 and 0.157 µM.
On to `CC(COC(F)(F)F)NC(=O)c1cn(-c2ccc(F)cc2F)c2nc(N3CC[C@H](F)C3)ccc2c1=O` (mixture of isomers) [Example 227, 1-(2,4-Difluorophenyl)-7-[(3S)-3-fluoropyrrolidin-1-yl]-4-oxo-N-[1-(trifluoromethoxy)propan-2-yl]-1,4-dihydro-1,8-naphthyridine-3-carboxamide], for which the “Cooperativity (alpha factor)” value at human M2 receptor [1] was 14. Also, on human M2 receptor [2], the EC50 amounted to 0.073 µM.
As to `CC(COC(F)(F)F)NC(=O)c1cn(-c2ccc(F)cc2F)c2nc(N(C)C)ccc2c1=O` (racemic) [Example 231, 1-(2,4-Difluorophenyl)-7-(dimethylamino)-4-oxo-N-[1-(trifluoromethoxy)propan-2-yl]-1,4-dihydro-1,8-naphthyridine-3-carboxamide], the “Cooperativity (alpha factor)” value at human M2 receptor [1] turned out to be 12. The molecule also returned an EC50 at human M2 receptor [2] of 0.12 µM.
Turning to `CC(COC(F)(F)F)NC(=O)c1cn(-c2ccc(F)cc2F)c2nc(N3CCCC3)ccc2c1=O` (racemic) [Example 232, 1-(2,4-Difluorophenyl)-4-oxo-7-(pyrrolidin-1-yl)-N-[1-(trifluoromethoxy)propan-2-yl]-1,4-dihydro-1,8-naphthyridine-3-carboxamide], at human M2 receptor [1], the “Cooperativity (alpha factor)” value is 8. The molecule also registered an EC50 on human M2 receptor [2] of 0.097 µM.
For `O=C(NC(COC(F)(F)F)c1ccccc1)c1cn(-c2ccc(F)cc2F)c2nc(N3C[C@@H](O)CC3=O)ccc2c1=O` (mixture of isomers) [Example 233, 1-(2,4-Difluorophenyl)-7-[(4S)-4-hydroxy-2-oxopyrrolidin-1-yl]-4-oxo-N-[1-phenyl-2-(trifluoromethoxy)ethyl]-1,4-dihydro-1,8-naphthyridine-3-carboxamide] the same measures were 41 and 0.057 µM.
For `O=C(NC(c1c(F)cccc1F)C(F)(F)F)c1cn(-c2ccc(F)cc2F)c2nc(N3CC[C@H](F)C3)ccc2c1=O` (mixture of isomers) [Example 241, 1-(2,4-Difluorophenyl)-N-[1-(2,6-difluorophenyl)-2,2,2-trifluoroethyl]-7-[(3S)-3-fluoropyrrolidin-1-yl]-4-oxo-1,4-dihydro-1,8-naphthyridine-3-carboxamide] the same measures were 18 and 0.021 µM.
For `O=C(NC(c1c(F)cccc1F)C(F)(F)F)c1cn(-c2ccc(F)cc2F)c2nc(N3C[C@@H](O)CC3=O)ccc2c1=O` (mixture of isomers) [Example 244, 1-(2,4-Difluorophenyl)-N-[1-(2,6-difluorophenyl)-2,2,2-trifluoroethyl]-7-[(4S)-4-hydroxy-2-oxopyrrolidin-1-yl]-4-oxo-1,4-dihydro-1,8-naphthyridine-3-carboxamide] the same measures were 58 and 0.022 µM.
On to `CC[C@@H](NC(=O)c1cn(-c2ccc(F)cc2F)c2nc(N3CC4CC4(O)C3)ccc2c1=O)C(F)(F)F` (mixture of isomers) [Example 267, 1-(2,4-Difluorophenyl)-7-[1-hydroxy-3-azabicyclo[3.1.0]hex-3-yl]-4-oxo-N-[(2R)-1,1,1-trifluorobutan-2-yl]-1,4-dihydro-1,8-naphthyridine-3-carboxamide], for which the “Cooperativity (alpha factor)” value at human M2 receptor [1] amounted to 28. The molecule further showed an EC50 at human M2 receptor [2] of 0.024 µM.
For `CC[C@@H](NC(=O)c1cn(-c2c(F)cccc2F)c2nc(N3CCC(C)(O)C3)ccc2c1=O)C(F)(F)F` (mixture of isomers) [Example 276, 1-(2,6-Difluorophenyl)-7-[3-hydroxy-3-methylpyrrolidin-1-yl]-4-oxo-N-[(2R)-1,1,1-trifluorobutan-2-yl]-1,4-dihydro-1,8-naphthyridine-3-carboxamide] the same measures were 28 and 0.08 µM.
Consider `CC[C@@H](NC(=O)c1cn(-c2c(F)cc(F)cc2F)c2nc(N3CCC(O)C3=O)ccc2c1=O)C(F)(F)F` (mixture of isomers) [Example 280, 7-[3-Hydroxy-2-oxopyrrolidin-1-yl]-4-oxo-N-[(2R)-1,1,1-trifluorobutan-2-yl]-1-(2,4,6-trifluorophenyl)-1,4-dihydro-1,8-naphthyridine-3-carboxamide], for which the “Cooperativity (alpha factor)” value at human M2 receptor [1] is 24. On human M2 receptor [2], this molecule registered an EC50 of 0.044 µM.
For `O=C(NC(c1ccccc1Cl)C(F)(F)F)c1cn(-c2ccccc2F)c2nc(N3CCC(O)C3=O)ccc2c1=O` (racemic) [Example 287, N-[1-(2-Chlorophenyl)-2,2,2-trifluoroethyl]-1-(2-fluorophenyl)-7-[3-hydroxy-2-oxopyrrolidin-1-yl]-4-oxo-1,4-dihydro-1,8-naphthyridine-3-carboxamide], the “Cooperativity (alpha factor)” value at human M2 receptor [1] turned out to be 24. Moreover, the concentration for a half-maximal effect (EC50) on human M2 receptor [2] amounted to 0.145 µM.
On to `O=C(NC(C1CC1)C(F)(F)F)c1cn(-c2c(F)cccc2F)c2nc(N3C[C@@H](O)CC3=O)ccc2c1=O` (mixture of isomers) [Example 295, N-[1-Cyclopropyl-2,2,2-trifluoroethyl]-1-(2,6-difluorophenyl)-7-[(4S)-4-hydroxy-2-oxopyrrolidin-1-yl]-4-oxo-1,4-dihydro-1,8-naphthyridine-3-carboxamide], for which the “Cooperativity (alpha factor)” value at human M2 receptor [1] stood at 71. Further, the midpoint of the response on human M2 receptor [2], the EC50, lay at 0.021 µM.
As for `CC[C@@H](NC(=O)c1cn(-c2ccc(F)cc2F)c2nc(N3CC(C)CC3=O)ccc2c1=O)C(F)(F)F` (mixture of isomers) [Example 301, 1-(2,4-Difluorophenyl)-7-[4-methyl-2-oxopyrrolidin-1-yl]-4-oxo-N-[(2R)-1,1,1-trifluorobutan-2-yl]-1,4-dihydro-1,8-naphthyridine-3-carboxamide], on human M2 receptor [1], the “Cooperativity (alpha factor)” value amounted to 12. The EC50 on human M2 receptor [2] is 0.03 µM.
For `CC[C@@H](NC(=O)c1cn(-c2c(F)cccc2F)c2nc(N3CC4CC4(O)C3)ccc2c1=O)C(F)(F)F` (mixture of isomers) [Example 304, 1-(2,6-Difluorophenyl)-7-[1-hydroxy-3-azabicyclo[3.1.0]hex-3-yl]-4-oxo-N-[(2R)-1,1,1-trifluorobutan-2-yl]-1,4-dihydro-1,8-naphthyridine-3-carboxamide] the same measures were 24 and 0.009 µM.
For `CC[C@@H](NC(=O)c1cn(-c2c(F)cccc2Cl)c2nc(N3CC4CC4(O)C3)ccc2c1=O)C(F)(F)F` (mixture of isomers) [Example 310, 1-(2-Chloro-6-fluorophenyl)-7-[1-hydroxy-3-azabicyclo[3.1.0]hex-3-yl]-4-oxo-N-[(2R)-1,1,1-trifluorobutan-2-yl]-1,4-dihydro-1,8-naphthyridine-3-carboxamide] the same measures were 21 and 0.014 µM.
For `C[C@H](NC(=O)c1cn(-c2c(F)cccc2F)c2nc(N3CC4CC4(O)C3)ccc2c1=O)C(F)(F)F` (mixture of isomers) [Example 311, 1-(2,6-Difluorophenyl)-7-[1-hydroxy-3-azabicyclo[3.1.0]hex-3-yl]-4-oxo-N-[(2S)-1,1,1-trifluoropropan-2-yl]-1,4-dihydro-1,8-naphthyridine-3-carboxamide] the same measures were 20 and 0.025 µM.

For orientation: EC50 means the concentration at which the effect is half-maximal. The low end stands for greater potency, the high end for weaker potency.
